Source: the OPERA property sets (Mansouri et al. 2018)

Conditions: not given

Row | SMILES | melting point [°C] | boiling point [°C] | log10 vapour pressure (mmHg) | log10 Henry constant (atm·m³/mol) | log10 Koa | log10 Koc (L/kg) | log10 biodegradation half-life (days) | ready biodegradability
1 | Cc1cc(C)c2ccccc2c1C | 55.5 | – | – | – | – | – | – | –
2 | c1ccc(Cc2cccc3ccccc23)cc1 | 59.5 | 350 | – | – | – | – | – | –
3 | CCCCCCCCSCCO | 0 | – | -3.23 | – | – | – | – | –
4 | CN1CCCC1 | – | 81 | 2 | -4.52 | 3.64 | – | – | –
5 | Cc1cccc(C)c1C | -25.4 | 176 | 0.228 | -2.36 | – | 2.8 | 0.602 | not readily biodegradable
6 | CC(C)(C)C#N | 15 | 106 | 1.54 | – | – | – | – | –
7 | Cc1n[nH]c(C)c1Cl | 118 | 221 | – | – | – | – | – | –
8 | COc1c(OC)c(OC(C)=O)c2ccccc2c1OC(C)=O | 138 | – | – | – | – | – | – | –
9 | CC(=O)c1ccc(I)cc1 | 86 | – | – | – | – | – | – | –
10 | C#CC(C)=CC | – | 66.5 | – | – | – | – | – | –
11 | O=S(=O)([O-])CCN1CC[NH+](CCO)CC1 | 234 | – | – | – | – | – | – | –
12 | CCSC(=O)N(CC(C)C)CC(C)C | – | – | -1.89 | – | – | 2.11 | – | –
13 | CCCCN(CCCC)CCCN | – | 205 | – | – | – | – | – | –
14 | C=CC/C=C/C/C=C/C/C=C/C | – | – | – | – | – | – | – | not readily biodegradable
15 | Cc1ccc(N=C=O)cc1N=C=O | 20.5 | 251 | -2.1 | – | – | – | – | not readily biodegradable
16 | CC(=O)OC1CCCCC1 | -65 | 173 | 1.03 | – | – | – | – | –
17 | O=C(O)c1cc(O)c(O)c(=O)c(O)c1 | 317 | – | – | – | – | – | – | –
18 | CCCCOC(=O)CCC(C)=O | – | 238 | – | – | – | – | – | –
19 | O=C(O)[C@H](O)[C@@H](O)[C@H](O)[C@H](O)CO | 131 | – | – | – | – | – | – | –
20 | Nc1cccnc1 | 64.5 | 252 | – | – | – | – | – | not readily biodegradable

Row | SMILES | melting point [°C] | boiling point [°C] | log10 vapour pressure (mmHg) | log10 Henry constant (atm·m³/mol) | log10 Koa | log10 Koc (L/kg) | log10 biodegradation half-life (days) | ready biodegradability
21 | CC(C)CCCCCCCOC(=O)c1ccccc1C(=O)OCCCCCCCC(C)C | -45.6 | – | -6.28 | – | – | – | – | readily biodegradable
22 | CCN(C)N=O | – | 170 | – | – | – | – | – | –
23 | CCOC(N)=O | 49 | 185 | -0.582 | – | – | – | – | not readily biodegradable
24 | COc1c(O)cc(Cl)c(Cl)c1Cl | – | – | -3.05 | – | – | 2.8 | – | not readily biodegradable
25 | CC(F)=C(Cl)Cl | – | 78 | – | – | – | – | – | –
26 | OCCCc1ccccn1 | 34 | 260 | – | – | – | – | – | –
27 | CCOc1cc(C=O)ccc1O | 77.5 | 294 | -4.98 | – | – | – | – | readily biodegradable
28 | CC(=O)NN | 67 | – | – | – | – | – | – | –
29 | COc1ccccc1F | -39 | 154 | – | – | – | – | – | –
30 | CCCCCOC(=O)c1ccccc1C(=O)OCCCCC | – | 342 | – | – | – | – | – | –
31 | CC(=O)c1ccccc1C(=O)O | 114 | – | – | – | – | – | – | –
32 | O=[N+]([O-])c1ccc(Nc2ccccc2)cc1 | 135 | – | – | – | – | – | – | –
33 | Cc1coc(C)c1 | – | 94 | – | – | – | – | – | –
34 | COC(=O)Nc1ccccc1 | – | – | – | – | – | 1.73 | – | –
35 | CCCC(Cl)CCl (centres undefined) | – | 148 | – | – | – | – | – | –
36 | Clc1cccc(C(Cl)(Cl)Cl)c1 | 0.6 | 255 | – | – | – | – | – | –
37 | Clc1cccc(-c2c(Cl)c(Cl)c(Cl)c(Cl)c2Cl)c1 | – | – | – | -4.7 | – | – | – | –
38 | O=c1c2ccccc2c(=O)c2c1ccc1[nH]c3c(ccc4c(=O)c5ccccc5c(=O)c43)[nH]c12 | – | – | – | – | – | – | – | not readily biodegradable
39 | CC(C(=O)O)c1ccc(N2Cc3ccccc3C2=O)cc1 (centres undefined) | 214 | – | – | – | – | – | – | –
40 | CC(=O)N(C)c1ccccc1C | 55.5 | 260 | – | – | – | – | – | –

Row | SMILES | melting point [°C] | boiling point [°C] | log10 vapour pressure (mmHg) | log10 Henry constant (atm·m³/mol) | log10 Koa | log10 Koc (L/kg) | log10 biodegradation half-life (days) | ready biodegradability
41 | C[Si](C)(C)O[Si](C)(C)O[Si](C)(C)O[Si](C)(C)C | -76 | 194 | -0.426 | 1.23 | – | – | – | –
42 | Nc1ccccc1Br | 32 | 229 | – | – | – | – | – | –
43 | ClCCCCCCCCCl | – | 241 | – | – | – | – | – | not readily biodegradable
44 | Clc1ccc(Cl)c(-c2ccc(Cl)c(Cl)c2)c1 | 106 | – | -4.39 | -4 | – | 4.86 | – | –
45 | c1ccc2sncc2c1 | 38 | 220 | – | – | – | – | – | –
46 | CCCC(=O)N(C)C | -40 | 186 | – | – | – | – | – | –
47 | Cc1ccc(Cc2ccccc2)cc1 | -30 | 286 | – | – | – | – | – | –
48 | O=C1c2ccccc2C(=O)c2c1cccc2S(=O)(=O)O | – | – | – | – | – | – | – | not readily biodegradable
49 | C=CCC1(C(C)C)C(=O)NC(=O)N(C)C1=O (centres undefined) | 56.5 | – | – | – | – | – | – | –
50 | CCN1CCCC1CNC(=O)c1cc(S(=O)(=O)CC)c(N)cc1OC (centres undefined) | 126 | – | – | – | – | – | – | –
51 | CC1CCCC1(C)C (centres undefined) | -21.6 | 114 | – | – | – | – | – | –
52 | C=CCC(C(C)=O)C(C)=O | – | 199 | – | – | – | – | – | –
53 | COc1cccc(C=O)c1O | 44.5 | 266 | – | – | – | – | – | –
54 | BrC=Cc1ccccc1 | 7 | – | – | – | – | – | – | not readily biodegradable
55 | Clc1ccc(C(Cl)Cl)cc1Cl | – | 257 | – | – | – | – | – | –
56 | Clc1cc(Cl)c2cccc(Cl)c2c1 | – | – | – | – | 7.32 | – | – | –
57 | O=S(=O)(Oc1ccc(Cl)cc1)c1ccc(Cl)cc1 | 86.5 | – | – | – | – | – | – | not readily biodegradable
58 | Brc1ccc(-c2ccccc2)cc1 | 91.5 | 310 | -2.63 | – | – | – | – | readily biodegradable

Same assay, conditions: fish

Row | SMILES | log10 BCF | log10 biotransformation half-life (days)
59 | Cc1ccc2ccccc2c1 | 1.87 | 0.88
60 | Clc1ccc(C(c2ccccc2Cl)C(Cl)(Cl)Cl)cc1 (centres undefined) | – | 1.71
61 | OCc1cccc(Cl)c1 | 1.29 | –
62 | Cc1ccccc1[N+](=O)[O-] | 1.26 | -0.48
63 | c1ccc2scnc2c1 | 0.88 | -0.86
64 | Cc1cccc(C)c1C | 2.29 | -0.22
65 | COc1cc(Cl)c(Cl)c(Cl)c1 | 3.09 | –
66 | Nc1cccnc1 | 0.32 | –
67 | CC(C)CCCCCCCOC(=O)c1ccccc1C(=O)OCCCCCCCC(C)C | 1.16 | –
68 | COc1c(O)cc(Cl)c(Cl)c1Cl | 2.41 | 0.11
69 | Clc1ccc(Cl)c(-c2ccc(Cl)c(Cl)c2)c1 | 5.08 | 2.65
